Laboratory results reported in US10562897B2, “Substituted 3,4-dihydro-2H-pyrido[1,2-a]pyrazine-1,6-diones as gamma secretase modulators” (Janssen Pharmaceutica NV, priority 2014, dated 2020).
Where two headings read alike, the source gives them in different places.

Columns and labels:
[1] = test system: Aβ42; experiment: In vivo efficacy: brain level of soluble Aβ42, non-transgenic rodents, single oral dose 30 mg/kg, 4 h, MSD electrochemiluminescence, untreated control = 100; parameters: species or system mouse; settings: Mus musculus, read-out: Aβ42 (% vs Ctrl) _Mean; for response vs control in vivo at 10 mg/kg: 10 mpk po
Excerpt: (§1) To determine whether acute administration of an Aβ42 lowering agent would reduce Aβ42 levels in vivo, non-transgenic rodents, e.g. mice or rats were used. Animals treated with the Aβ42 lowering agent were examined and compared to those untreated or treated with vehicle and brain levels of soluble Aβ42, Aβ40, Aβ38, and Aβ37 were quantitated by Meso Scale Discovery's (MSD) electrochemiluminescence detection technology. Treatment periods varied from hours (h) to days and were adjusted based on the results of the Aβ42 lowering once a time course of onset of effect could be established.
(§2) A typical protocol for measuring Aβ42 lowering in vivo is shown but it is only one of many variations that could be used to optimize the levels of detectable Aβ. For example, Aβ42 lowering compounds were formulated in 20% of Captisol® (a sulfobutyl ether of β-cyclodextrin) in water or 20% hydroxypropyl β cyclodextrin. The Aβ42 lowering agents were administered as a single oral dose or by any acceptable route of administration to overnight fasted animals. After 4 h, the animals were sacrificed and Aβ42 levels were analysed.
(§3) Blood was collected by decapitation and exsanguinations in EDTA-treated collection tubes. Blood was centrifuged at 1900 g for 10 minutes (min) at 4° C. and the plasma recovered and flash frozen for later analysis. The brain was removed from the cranium and hindbrain. The cerebellum was removed and the left and right hemisphere were separated. The left hemisphere was stored at −18° C. for quantitative analysis of test compound levels. The right hemisphere was rinsed with phosphate-buffered saline (PBS) buffer and immediately frozen on dry ice and stored at −80° C. until homogenization for biochemical assays.
(§4) Mouse brains from non-transgenic animals were resuspended in 8 volumes of 0.4% DEA (diethylamine)/50 mM NaCl containing protease inhibitors (Roche-11873580001 or 04693159001) per gram of tissue, e.g. for 0.158 g brain, add 1.264 ml of 0.4% DEA. All samples were homogenized in the FastPrep-24 system (MP Biomedicals) using lysing matrix D (MPBio #6913-100) at 6 m/s for 20 seconds. Homogenates were centrifuged at 20800×g for 5 min and supernatants collected. Supernatants were centrifuged at 221.300×g for 50 min. The resulting high speed supernatants were then transferred to fresh eppendorf tubes. Nine parts of supernatant were neutralized with 1 part 0.5 M Tris-HCl pH 6.8 and used to quantify Aβ.
(§5) To quantify the amount of Aβ42, Aβ40, Aβ38, and Aβ37 in the soluble fraction of the brain homogenates, simultaneous specific detection of Aβ42, Aβ40, Aβ38, and Aβ37 was performed using MSD's electro-chemiluminescence multiplex detection technology. In this assay purified monoclonal antibodies specific for Abeta37 (JRD/Aβ37/3), Abeta38 (J&JPRD/Aβ38/5), Abeta40 (JRF/cAβ40/28), and Abeta42 (JRF/cAβ42/26) were coated on MSD 4-plex plates. Briefly, the standards (a dilution of synthetic Aβ42, Aβ40, Aβ38, and Aβ37) were prepared in 1.5 ml Eppendorf tube in Ultraculture, with final concentrations ranging from 10000 to 0.3 pg/m. The samples and standards were co-incubated with Sulfo-tag labelled JRF/rAß/2 antibody to the N-terminus of Aβ as detector antibody. 50 μl of conjugate/sample or conjugate/standards mixtures were then added to the antibody-coated plate. The plate was allowed to incubate overnight at 4° C. in order to allow formation of the antibody-amyloid complex. Following this incubation and subsequent wash steps the assay was finished by adding read buffer according to the manufacturer's instructions (Meso Scale Discovery, Gaitherburg, Md.).
(§6) The SULFO-TAG emits light upon electrochemical stimulation initiated at the electrode. MSD Sector instrument SI6000 was used for signal read-out.
In this model a Aß42 lowering compared to untreated animals would be advantageous, in particular a Aß42 lowering with at least 10%, more in particular a Aß42 lowering with at least 20%. […]

[2] = test system: Aβ40; experiment: In vivo efficacy: brain level of soluble Aβ40, non-transgenic rodents, single oral dose 30 mg/kg, 4 h, MSD electrochemiluminescence, untreated control = 100; parameters: species or system mouse; settings: Mus musculus, read-out: Aβ40 (% vs Ctrl) _Mean; for response vs control in vivo at 10 mg/kg: 10 mpk po
Excerpt: as §1, §2, §3, §4, §5
The SULFO-TAG emits light upon electrochemical stimulation initiated at the electrode. MSD Sector instrument SI6000 was used for signal read-out. […]

[3] = test system: Aβ38; experiment: In vivo efficacy: brain level of soluble Aβ38, non-transgenic rodents, single oral dose 30 mg/kg, 4 h, MSD electrochemiluminescence, untreated control = 100; parameters: species or system mouse; settings: Mus musculus, read-out: Aβ38 (% vs Ctrl) _Mean; for response vs control in vivo at 10 mg/kg: 10 mpk po
Excerpt: To determine whether acute administration of an Aβ38 increasing agents would increase Aβ38 levels in vivo, non-transgenic rodents, e.g. mice or rats were used. Animals treated with the Aβ38 increasing agents were examined and compared to those untreated or treated with vehicle and brain levels of soluble Aβ42, Aβ40, Aβ38, and Aβ37 were quantitated by MSD electrochemiluminescence detection technology.
Treatment periods varied from hours (h) to days and were adjusted based on the results of the Aβ38 increase once a time course of onset of effect could be established.
as §2, with “measuring Aβ38 increase” for “measuring Aβ42 lowering”, “example, Aβ38 increasing agents” for “example, Aβ42 lowering compounds”, “The Aβ38 increasing” for “The Aβ42 lowering”, “and Aβ38” for “and Aβ42”
as §3, §4
as §5, with “[…].” for “pg/m.”
as §6
In this model a Aß38 increase compared to untreated animals would be advantageous, in particular a Aß38 increase with at least 10%, more in particular a Aß38 increase with at least 20%. […]

melting point [°C]	SMILES	response vs control in vivo at 30 mg/kg ([1]; po, dose 30 mg/kg oral dosing) [%]	response vs control in vivo at 30 mg/kg ([2]; po, dose 30 mg/kg oral dosing) [%]	response vs control in vivo at 30 mg/kg ([3]; po, dose 30 mg/kg oral dosing) [%]	response vs control in vivo at 10 mg/kg ([1]; po) [%]	response vs control in vivo at 10 mg/kg ([2]; po) [%]	response vs control in vivo at 10 mg/kg ([3]; po) [%]	response vs control in vivo at 30 mg/kg ([1]; sc, 30 mpk sc) [%]	response vs control in vivo at 30 mg/kg ([2]; sc, 30 mpk sc (footnote *)) [%]	response vs control in vivo at 30 mg/kg ([3]; sc, 30 mpk sc) [%]
215	Cc1cn(-c2ccc3n(c2=O)C[C@@H](C)N(Cc2coc4cc(C(F)(F)F)ccc24)C3=O)cn1 [Compound 72]	64	88	130						
230	Cc1cn(-c2ccc3n(c2=O)CC(C)N(C(C)c2coc4cc(F)c(C(F)(F)F)cc24)C3=O)cn1 (single isomer, unassigned) [Compound 89]				58	67	132			
226	Cc1cn(-c2ccc3n(c2=O)C[C@@H](C)N(Cc2coc4cc(C(F)(F)F)c(F)cc24)C3=O)cn1 [Compound 85]							51	69	194
211	Cc1cn(-c2ccc3n(c2=O)CCN(Cc2coc4ccc(C(F)(F)F)cc24)C3=O)cn1 [Compound 64]							108	132	155
187	Cc1cn(-c2ccc3n(c2=O)C[C@@H](C)N(Cc2coc4ccc(C(F)(F)F)cc24)C3=O)cn1 [Compound 73]							97	114	110
231	Cc1cn(-c2ccc3n(c2=O)CCN(C(C)c2coc4cc(F)c(Cl)cc24)C3=O)cn1 (single isomer, unassigned) [Compound 61]	86	90	192						
222	Cc1cn(-c2ccc3n(c2=O)C[C@@H](C)N(Cc2coc4cc(F)c(C(F)(F)F)cc24)C3=O)cn1 [Compound 84]							25	21	237
159	Cc1cn(-c2ccc3n(c2=O)C[C@@H](C)N(Cc2cc4cc(Br)ccc4o2)C3=O)cn1 [Compound 13]	77	101	117						
202	Cc1cn(-c2ccc3n(c2=O)C[C@@H](C)N(Cc2coc4c(Cl)cc(Cl)cc24)C3=O)cn1 [Compound 74]				83	100	144			

More lines, now with the values behind:

SMILES	melting point [°C]	response vs control in vivo at 30 mg/kg ([1]; po, dose 30 mg/kg oral dosing) [%]	response vs control in vivo at 30 mg/kg ([2]; po, dose 30 mg/kg oral dosing) [%]	response vs control in vivo at 30 mg/kg ([3]; po, dose 30 mg/kg oral dosing) [%]	response vs control in vivo at 10 mg/kg ([1]; po) [%]	response vs control in vivo at 10 mg/kg ([2]; po) [%]	response vs control in vivo at 10 mg/kg ([3]; po) [%]	response vs control in vivo at 30 mg/kg ([1]; sc, 30 mpk sc) [%]	response vs control in vivo at 30 mg/kg ([2]; sc, 30 mpk sc (footnote *)) [%]	response vs control in vivo at 30 mg/kg ([3]; sc, 30 mpk sc) [%]
Cc1cn(-c2ccc3n(c2=O)C[C@@H](C)N(Cc2coc4cc(F)c(Cl)cc24)C3=O)cn1 [Compound 63]								58	62	135
Cc1cn(-c2ccc3n(c2=O)CC(C)N(Cc2csc4c2CC(C(F)(F)F)CC4)C3=O)cn1 (stereo not drawn) [Compound 35]		112	108	116						
Cc1cn(-c2ccc3n(c2=O)C[C@@H](C)N(Cc2coc4ccc(OC(F)(F)F)cc24)C3=O)cn1 [Compound 83]								40	41	166
Cc1cn(-c2ccc3n(c2=O)C[C@@H](C)N(Cc2cc(OC4CC4)cc(C(F)(F)F)c2)C3=O)cn1 [Compound 33]		57	79	132						
Cc1cn(-c2ccc3n(c2=O)C[C@@H](C)N(Cc2coc4ccc(Cl)cc24)C3=O)cn1 [Compound 55]		93	113	142						
Cc1cn(-c2ccc3n(c2=O)CC(C)N(C(C)c2coc4cc(F)c(Cl)cc24)C3=O)cn1 (single isomer, unassigned) [Compound 65]		58	52	165						
Cc1cn(-c2ccc3n(c2=O)CC(C)N(C(C)c2coc4ccc(Cl)cc24)C3=O)cn1 (single isomer, unassigned) [Compound 57]								100	105	134
